Assays:
[1] = Differential scanning calorimetry (DSC), glass transition temperature; type: physicochemical
Source text: Differential Scanning Calorimetry (DSC):
(§1) The compound (3) is excellent in heat resistance.
The compound is excellent in heat resistance.

[2] = Vacuum evaporation temperature test with HPLC of boat residual; type: physicochemical; settings: for purity of residual on the vacuum evaporation boat after vacuum evaporation / purity of residual on the vacuum evaporation boat before vacuum evaporation: HPLC; for purity of residual on the vacuum evaporation boat after vacuum evaporation: after vacuum evaporation (thermal stability); for temperature needed to obtain an evaporation rate of 5 Å/second: vacuum evaporation
Procedure: (Vacuum Evaporation Temperature Test)
(§2) The residual on the vacuum evaporation boat before and after vacuum evaporation of the compound (3) was analyzed by high performance liquid chromatography, showing that the residual on the vacuum evaporation boat before and after vacuum evaporation was in fact found to have a purity of 100.00%.
(§3) In contrast, the compound (2) starts decomposition at a temperature of 412° C. as shown by the TG/DTA measurement. Since the temperature is close to the above-mentioned vacuum evaporation temperature (415° C.), it is expected that the compound (2) is accompanied by thermal decomposition at the vacuum evaporation temperature.

[3] = Thermogravimetric measurement/differential thermal analysis (TG/DTA); type: physicochemical
Procedure: Thermogravimetric Measurement/Differential Thermal Analysis (TG/DTA):
as §1, §2, §3
The compound (4) is excellent in heat resistance.

[4] = Solubility test in heated toluene; type: physicochemical
Procedure: 500 mL of heated toluene was needed to dissolve 1 g of the compound (2), but 50 mL of heated toluene was needed to dissolve 1 g of the compound (3).
500 mL of heated toluene was needed to dissolve 1 g of the compound (2), but 50 mL of heated toluene was needed to dissolve 1 g of the compound (4).

Cyclic voltammetry (CV) = type: physicochemical; settings: for stability in repetition: repeated oxidation-reduction
[5] = prior art, JP-A-2004-155754; cited from earlier work

glass transition temperature (Tg) [1] | purity of residual on the vacuum evaporation boat after vacuum evaporation [2] [%] | purity of residual on the vacuum evaporation boat before vacuum evaporation [2] [%] | temperature needed to obtain an evaporation rate of 5 Å/second [2] [°C] | temperature at which decomposition starts [3] [°C] | heated toluene needed to dissolve 1 g of the compound [4] [mL] | oxidation potential (Cyclic voltammetry (CV)) | reversibility of oxidation-reduction process (Cyclic voltammetry (CV)) | stability in repetition (Cyclic voltammetry (CV)) | decomposition temperature [3] [°C] | Structure (SMILES) | glass transition temperature [5] [°C]
103 °C |  |  |  |  |  |  |  |  |  | Cc1ccc(-c2ccc(N(c3ccc(C)cc3)c3cc(N(c4ccc(C)cc4)c4ccc(-c5ccc(C)cc5)cc4)cc(N(c4ccc(C)cc4)c4ccc(-c5ccc(C)cc5)cc4)c3)cc2)cc1 [compound (1), 1,3,5-tris(N-(4′-methyl-4-biphenylyl)-N-(4-methylphenyl)amino)benzene, reference compound] | 
no glass transition temperature | 95.87 | 99.03 | 415 | 412 | 500 |  |  |  |  | Cc1ccc(-c2ccc(N(c3ccc(-c4ccc(C)cc4)cc3)c3cc(N(c4ccc(-c5ccc(C)cc5)cc4)c4ccc(-c5ccc(C)cc5)cc4)cc(N(c4ccc(-c5ccc(C)cc5)cc4)c4ccc(-c5ccc(C)cc5)cc4)c3)cc2)cc1 [compound (2), 1,3,5-tris(N,N-bis(4′-methyl-4-biphenylyl)amino)benzene, reference compound] | 
179 °C | 100.00 | 100.00 | 350 | 430 | 50 | 0.52 V (vs. Ag/Ag^+) | excellent | good | 478 | Cc1ccc(-c2ccc(N(c3ccc(-c4ccc(C)cc4)cc3)c3cc(N(c4ccc(C)cc4)c4ccc(C)cc4)cc(N(c4ccc(-c5ccc(C)cc5)cc4)c4ccc(-c5ccc(C)cc5)cc4)c3)cc2)cc1 [compound (3), N,N,N′,N′-tetrakis(4′-methyl-4-biphenylyl)-N″,N″-bis(4-methylphenyl)benzene-1,3,5-triamine] | 
133 °C | 99.64 | 99.30 | 340 | 498 | 50 | 0.54 V (vs. Ag/Ag^+) | excellent | good | 498 | Cc1ccc(N(c2ccc(C)cc2)c2cc(N(c3ccc(-c4ccccc4)cc3)c3ccc(-c4ccccc4)cc3)cc(N(c3ccc(-c4ccccc4)cc3)c3ccc(-c4ccccc4)cc3)c2)cc1 [compound (4), N,N,N′,N′-tetrakis(4-biphenylyl)-N″,N″-bis(4-methylphenyl)benzene-1,3,5-triamine] | 
 |  |  |  |  |  |  |  |  |  | Cc1ccc(N(c2ccc(-c3ccccc3)cc2)c2cc(N(c3ccc(C)cc3)c3ccc(-c4ccccc4)cc3)cc(N(c3ccc(C)cc3)c3ccc(-c4ccccc4)cc3)c2)cc1 [p-MTPBAB, 1,3,5-tris(N-(p-methylphenyl)-N-(4-biphenylyl)amino)benzene] | 98
 |  |  |  |  |  |  |  |  |  | Cc1ccc(N(c2cc(N(c3ccc(C)cc3)c3cccc4ccccc34)cc(N(c3ccc(C)cc3)c3cccc4ccccc34)c2)c2cccc3ccccc23)cc1 [p-MTPNAB, 1,3,5-tris(N-(p-methylphenyl)-N-(1-naphthyl))-amino benzene] | 87

Reference: patent publication US8029920B2, “1,3,5-tris(diarylamino)benzenes and use thereof” (Bando Chemical Industries, Ltd, priority 2006, dated 2011)
